Source: PubChem BioAssay (NCI)
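Five concentrations, 48 hours, 96-well plates. GI50 = concentration required for 50% inhibition of growth. At the TGI there is no net growth.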

Experiments:
Test in all cases: NCI tumour cell line growth inhibition, 48 h
[1] = system: NCI-H522 lung
[2] = system: SK-MEL-2 melanoma
[3] = system: SK-MEL-28 melanoma
[4] = system: HL-60(TB) leukemia
[5] = system: U251 CNS
[6] = system: UACC-62 melanoma
[7] = system: K-562 leukemia
[8] = system: MDA-MB-231 breast
[9] = system: T-47D breast
[10] = system: LOX IMVI melanoma

SMILES | TGI [1] [µM] | TGI [2] [µM] | TGI [3] [µM] | TGI [4] [µM] | TGI [5] [µM] | TGI [6] [µM] | TGI [7] [µM] | TGI [8] [µM] | TGI [9] [µM] | TGI [10] [µM] | GI50 [7] [µM]
CN1CCN(C2=CC(=O)c3c(O)ccc(O)c3C2=O)CC1 | 3.17 | 4.08 | 3 | 0.785 | 2.97 | 3.13 | 1.72 | 3.1 | 2.04 | 1.79 | 
Cc1ccc(N=C2C(=Nc3ccc(C)cc3)N(c3ccc(C)cc3)C(=S)N2C(=O)c2ccccc2)cc1 | > 100 | > 100 | > 100 |  | > 100 | > 100 | > 100 | > 100 | > 100 |  | 
CCN1CCC(O)(/C=C/c2ccc(OC)cc2)C(C(=O)/C=C/c2ccc(OC)cc2)C1 (stereo not given) | 26.1 |  | 24.4 | 52.2 | 19.7 | 26.1 | 12.2 | 17.5 | 24.1 | 8.82 | 
C[C@H]1COC2=C1C(=O)C(=O)c1c2ccc2c1CCCC2(C)C | 12.3 | 15.3 | 20.6 | 42.3 | 27.4 | 8.2 | > 100 | > 100 | > 100 | 14.4 | 
CC1=C(C)C(=O)C(C2=CC(=O)C=CC2=O)=C(C2=CC(=O)C=CC2=O)C1=O | 64.7 | > 100 | > 100 | > 100 | > 77.5 | > 100 |  | 42.5 | 77.5 | > 96.1 | 
[N-]=[N+]=Nc1c([N+](=O)[O-])c(=O)n2c3c(cccc13)CCC2 | 4.58 | 31.2 | 16.3 | 4.56 | 34.7 | 29.9 | 3.84 | 25.9 | 26.3 | 28.9 | 
CC(=O)Nc1ccccc1NC1CC(C)N(c2ccccc2)N1C(C)=O (stereo not given) |  |  | > 10 | > 10 |  | > 10 | > 10 | > 10 | > 10 |  | 
CSc1scc2c1/C(=N/NC(N)=O)CCC2 |  | > 100 | > 100 |  | > 100 | > 100 | > 100 | > 100 | > 100 | > 100 | 
CC(=O)OC1COC(Nc2nc(N)n(C)c(=O)c2N=O)C(OC(C)=O)C1OC(C)=O (stereo not given) | > 10 | > 10 | > 10 | > 10 | > 10 | > 10 |  | > 10 | > 10 | > 10 | 
COc1ccc2c(c1)OC[C@@H]1c3cc(O)c(OCc4ccccc4)cc3O[C@H]21 | 51.9 | 60.8 | > 100 | 52 | 68.4 | > 100 | > 100 |  |  | > 100 | 
Brc1ccc2c(-c3csc(-c4c[nH]c5ccccc45)n3)c[nH]c2c1 | 32.2 |  | 31 |  | 31.7 | 35.9 | 37.5 | 31 | 66.4 | 29.6 | 18.8
CC(=O)/C(=C/N1CCNC1=S)C(=O)Nc1ccccc1C | > 100 | > 100 | > 100 |  | > 100 | > 100 | > 100 | > 100 | > 100 | > 100 | 
